# Experimental data as given in patent US20100112040A1, “Preparation of Heavy Metal-Containing Nano-Liposomes and their Uses in Medical Therapy” (S.B. BIOTECHNOLOGIES LTD., priority 2006, published 2010).
# Like-named read-outs stand apart in the source and are kept apart here.
# How the values were obtained:
# [1] = 200 μl i.p. of 2 mg/ml gold, 24 hours
# Description: (§1) Balb/C mice which had tumors on their thighs (KHJJ line, breast cancer) were used in these experiments. The mice were injected i.p. with 200 μl of liposomes containing 2 mg of gold atoms per/ml solution, and after 24 hours the animals were dissected and various internal organs were harvested, which included the tumor, brain, heart, lungs, spleen, liver, kidneys, and blood. The organs were rinsed and prepared for ICP-MS analysis. In control experiments, mice were injected with a solution containing 2 mg of gold/ml without confinement in liposomes.
# 1. A solution of gold chloride of 2 mg/ml (2000). The gold was not confined in liposomes. 2. A gold-containing liposome solution (2000) of gold content of 2 mg/ml.
# [2] = 200 μl i.p., 2 mg of gold/ml
# Description: as §1
smiles,measurement,setting,value
"[Cl][Au]([Cl])[Cl] [gold chloride solution, gold chloride]",Gold atoms per cell,[1]; Bladder,1.30E+10 atoms per cell
same,Gold atoms per cell,[1]; Blood,1.37E+08 atoms per cell
same,Gold atoms per cell,[1]; Brain,1.62E+07 atoms per cell
same,Gold atoms per cell,[1]; Heart,1.63E+09 atoms per cell
same,Gold atoms per cell,[1]; Kidneys,1.58E+09 atoms per cell
same,Gold atoms per cell,[1]; Liver,1.88E+08 atoms per cell
same,Gold atoms per cell,[1]; Lungs,1.36E+08 atoms per cell
same,Gold atoms per cell,[1]; Spleen,3.34E+08 atoms per cell
same,Gold atoms per cell,[1]; Tumor,1.10E+08 atoms per cell
same,survival of injected mice (toxicity of gold),[2],died after 24 hours
